The source of these data is paper PMC4454739 (Clinical cancer research : an official journal of the …, 2014).

Where two headings read alike, the source gives them in different places.

For orientation: AUC(0-inf) means the area under the concentration-time curve extrapolated to infinity. Lower therefore signals low exposure. One may read the AUC(0-t) as the area under the concentration-time curve up to a stated or last time point. In general, Cmax refers to the maximum level reached in the sampled fluid or tissue. By Tmax is commonly meant the time from dosing to the highest level. A word on the Vd: it is a proportionality between amount in the body and measured concentration, not a real space. Read a low Vd as little distribution into tissue. The half-life is the time needed for the level to fall by half in the phase considered. The clearance is the rate of elimination divided by the concentration. Read a high clearance as efficient removal. A word on the Vdss: it is the apparent volume that relates the amount in the body to the concentration in plasma or blood.

Data set [1] is classed as in vivo, human. The note with it: for change of exposure (AUC) with dose: temsirolimus 8, 10 and 15 mg/m^2; for AUC(0-inf) / AUC(0-t) / Cmax / Tmax / Vd / half-life / clearance: human, intravenous; for AUC(0-inf) / AUC(0-t) / Cmax / Tmax / Vd / half-life: plasma; for clearance: whole blood.
A short description of data set [2]: Phase I toxicity, DLT and MTD determination. As to conditions: for recommended pediatric phase II dose: IV once every 7 days. In kind it is in vivo, human.
The conditions of data set [3]: cited from earlier work.
For data set [4] the following is noted: adults, metastatic prostate cancer; with cixutumumab 6 mg/kg IV; cited from earlier work.
The conditions of data set [5]: in vivo, 6 mg/kg; cited from earlier work.
The conditions of data set [6]: in vivo; cited from earlier work.
The nature of the next data set: Cixutumumab. As to conditions: for AUC0–7d / CL / CL (weight-adjusted) / Cmax / Vdss / Vdss (weight-adjusted): median.
The mark [7] stands for this setting: all patients, combination with temsirolimus.
[8] abbreviates: cycle 1, IMC-A12 6 mg/kg + temsirolimus 8 mg/m^2 (n=8).
[9] abbreviates: cycle 1, IMC-A12 6 mg/kg + temsirolimus 10 mg/m^2 (n = 3).
[10] abbreviates: cycle 1, IMC-A12 6 mg/kg + temsirolimus 15 mg/m^2 (n = 4).

Turning to `CO[C@H]1C[C@@H]2CC[C@@H](C)[C@@](O)(O2)C(=O)C(=O)N2CCCC[C@H]2C(=O)O[C@H]([C@H](C)C[C@@H]2CC[C@@H](O)[C@H](OC)C2)CC(=O)[C@H](C)/C=C(\C)[C@@H](O)[C@@H](OC)C(=O)[C@H](C)C[C@H](C)/C=C/C=C/C=C/1C` [Sirolimus], the “change of exposure (AUC) with dose” value in data set [1] is “did not appreciably increase with dose”; in data set [1] (listed as sirolimus), “did not increase significantly with dose”.

For `CO[C@H]1C[C@@H]2CC[C@@H](C)[C@@](O)(O2)C(=O)C(=O)N2CCCC[C@H]2C(=O)O[C@H]([C@H](C)C[C@@H]2CC[C@@H](OC(=O)C(C)(CO)CO)[C@H](OC)C2)CC(=O)[C@H](C)/C=C(\C)[C@@H](O)[C@@H](OC)C(=O)[C@H](C)C[C@H](C)/C=C/C=C/C=C/1C` [Temsirolimus], in data set [1] (8 mg/m2), the AUC(0-inf) was determined as 2.95 µg·h/mL, the AUC(0-t) is 2.02 µg·h/mL, the peak concentration (Cmax) stood at 0.509 µg/mL and the time to peak (Tmax) turned out to be 0.8 h. Further, in data set [1] (8 mg/m2), the Vd turned out to be 46.3 L, the half-life is 10.3 h and the clearance was 38.3 mL/min. Besides, in data set [1] (10 mg/m2), the AUC(0-inf) is 3.65 µg·h/mL, the area under the curve AUC(0-t) came out at 2.65 µg·h/mL, the peak level (Cmax) was 0.606 µg/mL and the time of peak concentration (Tmax) worked out at 0.7 h. In data set [1] (10 mg/m2), the volume of distribution (Vd) stood at 50.4 L, the half-life is 10.5 h and the clearance is 91.7 mL/min. Also, in data set [1] (15 mg/m2), the total exposure AUC(0-inf) turned out to be 3.27 µg·h/mL, the AUC(0-t) was found to be 2.78 µg·h/mL, the highest level (Cmax) was 0.66 µg/mL and the time of peak concentration (Tmax) came out at 0.6 h. In data set [1] (15 mg/m2), this compound showed a Vd of 74.9 L, a half-life of 10.3 h and a clearance of 112 mL/min. The “change of exposure (AUC) with dose” value in data set [1] was “did not increase significantly with dose”. For the same compound, the MTD in data set [2] (temsirolimus combined with cixutumumab 6 mg/kg, children) was 8 mg/m^2. In addition, the “recommended pediatric phase II dose” value in data set [2] (temsirolimus in combination with cixutumumab) is 8 mg/m^2. Besides, in data set [3] (after a 25-mg dose), the “clearance from whole blood, mean” value was 20 L/h and the “steady-state volume of distribution (Vss)” value is 230 L. In data set [3] (after a 250-mg dose), the “clearance from whole blood, mean” value is 100 L/h and the “steady-state volume of distribution (Vss)” value was 900 L. In addition, in data set [4], the “MTD of temsirolimus in the combination, flat dose” value is 20 mg and the “MTD of temsirolimus in the combination, per body surface” value is 11 mg/m^2.

For the compound “Cixutumumab: fully recombinant IgG1 monoclonal antibody that specifically targets the human IGF-IR1”, the “recommended pediatric phase II dose” value in data set [2] (cixutumumab in combination with temsirolimus) is given as 6 mg/kg. Besides, in data set [5], the half-life was 209 h and the steady-state trough concentration is 145 mg/mL. For the same compound, the “recommended phase II dose, single agent” value in data set [6] is 9 mg/kg. Further, in “Cixutumumab” (setting [7]), the median half-life is 122 h and the median weight-adjusted clearance is 4.08 mL/day/kg. For the same compound, in the data set “Cixutumumab” (at 6 mg/kg, children), the half-life was determined as 122 h and the steady-state trough concentration stood at 197 mg/mL. The “median serum trough concentration (Ctrough)” value in the data set “Cixutumumab” (day 28 following a 6 mg/kg dose) was “approximately 200 μg/ml”. Also, in “Cixutumumab” (setting [8]), the “AUC0–7d” value turned out to be 0.0206 µg·h/mL, the CL was 8.3 mL/h, the “CL (weight-adjusted)” value was 4.56 mL/day/kg and the peak concentration (Cmax) worked out at 281 µg/mL. In “Cixutumumab” (setting [8]), the volume of distribution (Vdss) was determined as 1050 mL and the “Vdss (weight-adjusted)” value stood at 0.0258 L/kg. Besides, in the data set “Cixutumumab” (setting [9]), the “AUC0–7d” value is 0.0256 µg·h/mL, the CL turned out to be 9.9 mL/h, the “CL (weight-adjusted)” value was found to be 4.08 mL/day/kg and the maximum concentration (Cmax) was 277 µg/mL. In the data set “Cixutumumab” (setting [9]), the volume of distribution (Vdss) amounted to 1750 mL and the “Vdss (weight-adjusted)” value stood at 0.0227 L/kg. Also, in the data set “Cixutumumab” (setting [10]), the “AUC0–7d” value turned out to be 0.0264 µg·h/mL, the CL is recorded as 7.0 mL/h, the “CL (weight-adjusted)” value is 3.12 mL/day/kg and the Cmax is 230 µg/mL. In addition, in the data set “Cixutumumab” (setting [10]), the Vdss is given as 1860 mL and the “Vdss (weight-adjusted)” value is 0.0311 L/kg. Further, the “change in cixutumumab clearance as the temsirolimus dose was increased” value in “Cixutumumab” (temsirolimus 8 to 15 mg/m^2) was “no changes”.
